Target: B. subtilis DAPAS (Bs-DAPAS) (Bacillus subtilis, UniProt P53555)
Experiment: X-ray crystal structure, […] Å
Type: binding
Details: active site

B. subtilis DAPAS (Bs-DAPAS), sequence (P53555 whole entry, looked up): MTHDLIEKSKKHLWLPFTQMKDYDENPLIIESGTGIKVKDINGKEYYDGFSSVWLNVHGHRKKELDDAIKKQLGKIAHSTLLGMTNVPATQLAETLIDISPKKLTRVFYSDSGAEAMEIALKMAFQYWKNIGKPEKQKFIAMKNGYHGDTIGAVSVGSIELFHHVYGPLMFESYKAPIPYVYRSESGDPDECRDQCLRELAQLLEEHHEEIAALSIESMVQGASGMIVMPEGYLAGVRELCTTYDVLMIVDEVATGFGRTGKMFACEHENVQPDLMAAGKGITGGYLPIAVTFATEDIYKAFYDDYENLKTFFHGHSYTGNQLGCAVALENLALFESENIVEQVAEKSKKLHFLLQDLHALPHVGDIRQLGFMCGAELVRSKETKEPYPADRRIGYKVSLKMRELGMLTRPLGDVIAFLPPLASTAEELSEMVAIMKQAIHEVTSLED

Cc1ncc(COP(=O)(O)O)c(C=O)c1O [PLP]
X-ray crystal structure, 1.9 Å (cocrystallization, 1 mM PLP): the crystal structure of the B. subtilis DAPAS apoprotein, its PLP-bound complex

From publication PMC3503319 (Biochemistry, 2010)
